Measured values taken from patent US20130109682A1, “CYCLIC ETHER COMPOUNDS USEFUL AS KINASE INHIBITORS” (NOVARTIS AG, priority 2010, published 2013).

Assays:
Type in all cases: biochemical
[1] = target: GSK3β (Homo sapiens, UniProt P49841); assay: GSK3β ATP depletion assay; settings: ATP depletion assay; read-out: GSK3b IC50
Outline: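 Kinase activity is read as ATP consumption: luciferase luminescence reports the ATP remaining once roughly half of the 2 μM ATP is used. Reaction mix: 5 nM GSK3β, 10 μM b-CREB peptide, 50 mM Tris pH 7.5, 15 mM MgCl2, 1 mM DTT, 0.1% BSA, 2.5% DMSO. Enzyme and peptide are preincubated 15 min before ATP is added.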

[2] = target: PIM1 (Homo sapiens, UniProt P11309); assay: Pim 1 AlphaScreen assay (high ATP); settings: read-out: Pim1 IC50
Chain of PIM1 (P11309 whole entry): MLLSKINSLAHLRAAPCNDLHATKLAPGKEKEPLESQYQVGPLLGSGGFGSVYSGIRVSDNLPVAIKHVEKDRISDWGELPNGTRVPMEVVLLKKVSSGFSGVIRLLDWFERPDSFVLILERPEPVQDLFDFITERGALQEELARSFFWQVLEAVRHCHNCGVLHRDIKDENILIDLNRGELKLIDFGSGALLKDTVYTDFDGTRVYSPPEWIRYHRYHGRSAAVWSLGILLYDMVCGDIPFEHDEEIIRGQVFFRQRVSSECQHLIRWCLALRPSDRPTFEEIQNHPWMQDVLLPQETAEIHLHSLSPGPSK
Procedure: (§1) Pim1, Pim2, Pim3 AlphaScreen Assay Pim 1, Pim 2 & Pim 3 AlphaScreen assays using high ATP (11-125×ATP Km) were used to determine the biochemical activity of the inhibitors. The activity of Pim 1, Pim 2, & Pim 3 is measured using a homogeneous bead based system quantifying the amount of phosphorylated peptide substrate resulting from kinase-catalyzed phosphoryl transfer to a peptide substrate. Compounds to be tested are dissolved in 100% DMSO and directly distributed to a white 384-well plate at […] per well. To start the reaction, 5 μl of 100 nM Bad peptide (Biotin-AGAGRSRHSSYPAGT —OH) and ATP (concentrations described below) in assay buffer (50 mM Hepes, pH=7.5, 5 mM MgCl2, 0.05% BSA, 0.01% Tween-20, 1 mM DTT) is added to each well. This is followed by the addition of 5 μl/well of Pim 1, Pim 2 or Pim 3 kinase in assay buffer (concentrations described below). Final assay concentrations (described below) are in 2.5% DMSO. The reactions are performed for ˜2 hours, then stopped by the addition of 10 μl of 0.75 μg/ml anti-phospho Ser/Thr antibody (Cell Signaling), 10 μg/ml Protein A AlphaScreen beads (Perkin Elmer), and 10 μg/ml streptavidin coated AlphaScreen beads in stop/detection buffer (50 mM EDTA, 95 mM Tris, pH=7.5, 0.01% Tween-20). The stopped reactions are incubated overnight in the dark. The phosphorylated peptide is detected via an […] initiated chemiluminescence/fluorescence cascade using the Envision plate reader (Perkin Elmer).
(§2) IC50, the half maximal inhibitory concentration, represents the concentration of a test compound that is required for 50% inhibition of its target in vitro under the described assay conditions.

[3] = target: PIM2 (Homo sapiens, UniProt Q9P1W9); assay: Pim 2 AlphaScreen assay (high ATP); settings: read-out: Pim2 IC50
Chain of PIM2 (Q9P1W9 whole entry): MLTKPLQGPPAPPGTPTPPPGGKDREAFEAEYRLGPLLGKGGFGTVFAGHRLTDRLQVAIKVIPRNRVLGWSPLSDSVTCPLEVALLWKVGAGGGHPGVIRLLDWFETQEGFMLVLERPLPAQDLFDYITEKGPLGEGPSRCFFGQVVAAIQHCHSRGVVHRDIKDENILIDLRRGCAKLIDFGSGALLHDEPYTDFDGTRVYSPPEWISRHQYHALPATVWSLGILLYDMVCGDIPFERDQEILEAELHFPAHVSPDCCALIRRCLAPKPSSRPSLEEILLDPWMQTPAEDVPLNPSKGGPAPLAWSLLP
Outline: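 IC50 values rest on detection of phosphorylated Bad peptide: after a ~2 h kinase reaction, an EDTA stop buffer containing anti-phospho Ser/Thr antibody, Protein A and streptavidin AlphaScreen beads was added and read after overnight dark incubation. ATP was high (11-125× Km), with 2.5% DMSO in pH 7.5 Hepes buffer containing MgCl2, BSA, Tween-20 and DTT.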

[4] = target: PIM3 (Homo sapiens, UniProt Q86V86); assay: Pim 3 AlphaScreen assay (high ATP); settings: read-out: Pim3 IC50
Procedure: as §1, §2

Chain of GSK3β (P49841 whole entry, species assumed): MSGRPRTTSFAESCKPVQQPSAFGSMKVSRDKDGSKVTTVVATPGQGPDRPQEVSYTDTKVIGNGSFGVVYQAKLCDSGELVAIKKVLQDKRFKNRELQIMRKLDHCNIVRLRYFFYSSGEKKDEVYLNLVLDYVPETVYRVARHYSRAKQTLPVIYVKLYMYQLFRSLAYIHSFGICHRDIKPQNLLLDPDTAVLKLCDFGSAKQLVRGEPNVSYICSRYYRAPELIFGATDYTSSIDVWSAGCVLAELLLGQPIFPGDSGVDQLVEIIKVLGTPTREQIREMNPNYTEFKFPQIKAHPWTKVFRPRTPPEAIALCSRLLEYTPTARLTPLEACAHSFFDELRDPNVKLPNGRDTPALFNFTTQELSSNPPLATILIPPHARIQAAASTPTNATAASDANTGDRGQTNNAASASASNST

SMILES	IC50 [1] [nM]	IC50 [2] [nM]	IC50 [3] [nM]	IC50 [4] [nM]
CC[C@]1(O)[C@H](N)C[C@H](c2ccncc2NC(=O)c2nc(-c3c(F)cccc3F)ncc2N)O[C@@H]1C [Example 239, 5-amino-N-(4-((2R,4R,5S,6R)-4-amino-5-ethyl-5-hydroxy-6-methyltetrahydro-2H-pyran-2-yl)pyridin-3-yl)-2-(2,6-difluorophenyl)pyrimidine-4-carboxamide]	352	0.92	24	8.4
COc1ccc(F)c(-c2nc(C(=O)Nc3cnccc3[C@H]3C[C@@H](N)[C@](C)(O)[C@@H](C)O3)ccc2F)c1F [Example 244, N-(4-((2R,4R,5S,6R)-4-amino-5-hydroxy-5,6-dimethyltetrahydro-2H-pyran-2-yl)pyridin-3-yl)-6-(2,6-difluoro-3-methoxyphenyl)-5-fluoropicolinamide]	809	0.08	12.2	1.2
Nc1cnc(-c2c(F)cccc2F)nc1C(=O)Nc1cnccc1[C@@H]1C[C@H](O)[C@@H](O)C2(CC2)O1 [Example 251, 5-amino-2-(2,6-difluorophenyl)-N-(4-((5S,7S,8R)-7,8-dihydroxy-4-oxaspiro[2.5]octan-5-yl)pyridin-3-yl)pyrimidine-4-carboxamide]	1110	90.7	9100	1320
CC(C)C1OC(c2ccncc2NC(=O)c2nc(-c3c(F)cccc3F)ncc2N)C[C@H](N)[C@H]1O (stereo in doubt) [Example 273, 5-amino-N-(4-((2S,4S,5R,6R)-4-amino-5-hydroxy-6-isopropyltetrahydro-2H-pyran-2-yl)pyridin-3-yl)-2-(2,6-difluorophenyl)pyrimidine-4-carboxamide]	16100	23.1	660	512
CC(C)(C)[C@H]1O[C@@H](c2ccncc2NC(=O)c2csc(-c3c(F)cccc3F)n2)C[C@@H](N)[C@@H]1O [Example 268, N-(4-((2R,4R,5S,6R)-4-amino-6-tert-butyl-5-hydroxytetrahydro-2H-pyran-2-yl)pyridin-3-yl)-2-(2,6-difluorophenyl)thiazole-4-carboxamide]	207	0.16	20.3	3.6
CC(C)C1OC(c2ccncc2NC(=O)c2ccc(F)c(-c3c(F)cccc3F)n2)C[C@H](N)[C@H]1O (stereo in doubt) [Example 274, N-(4-((2S,4S,5R,6R)-4-amino-5-hydroxy-6-isopropyltetrahydro-2H-pyran-2-yl)pyridin-3-yl)-6-(2,6-difluorophenyl)-5-fluoropicolinamide]	10700	4.7	305	95.7
Cc1cc(F)c(-c2nc(C(=O)Nc3cnccc3[C@H]3C[C@@H](N)[C@H](O)[C@@H](C(C)(C)C)O3)ccc2F)c(F)c1 [Example 270, N-(4-((2R,4R,5S,6R)-4-amino-6-tert-butyl-5-hydroxytetrahydro-2H-pyran-2-yl)pyridin-3-yl)-6-(2,6-difluoro-4-methylphenyl)-5-fluoropicolinamide]	1060	0.03	3.1	0.5
CC(C)(C)[C@H]1O[C@@H](c2ccncc2NC(=O)c2ccnc(-c3c(F)cccc3F)n2)C[C@@H](N)[C@@H]1O [Example 277, N-(4-((2R,4R,5S,6R)-4-amino-6-(tert-butyl)-5-hydroxytetrahydro-2H-pyran-2-yl)pyridin-3-yl)-2-(2,6-difluorophenyl)pyrimidine-4-carboxamide]	499	1.05	27.5	22.7
COc1cc(F)c(-c2nc(C(=O)Nc3cnccc3[C@H]3C[C@@H](N)[C@H](O)[C@@H](C(C)(C)C)O3)ccc2F)c(F)c1 [Example 269, N-(4-((2R,4R,5S,6R)-4-amino-6-tert-butyl-5-hydroxytetrahydro-2H-pyran-2-yl)pyridin-3-yl)-6-(2,6-difluoro-4-methoxyphenyl)-5-fluoropicolinamide]	613	0.03	2.4	0.5
Cc1cc(F)c(-c2nc(C(=O)Nc3cnccc3[C@H]3C[C@@H](N)[C@](C)(O)[C@@H](C)O3)ccc2F)c(F)c1 [Example 245, N-(4-((2R,4R,5S,6R)-4-amino-5-hydroxy-5,6-dimethyltetrahydro-2H-pyran-2-yl)pyridin-3-yl)-6-(2,6-difluoro-4-methylphenyl)-5-fluoropicolinamide]	768	0.05	6.9	0.8
N[C@@H]1C[C@H](c2ccncc2NC(=O)c2ccnc(-c3c(F)cccc3F)n2)O[C@@H]2CCCC[C@]12O [Example 237, N-(4-((2R,4R,4aS,8aR)-4-amino-4a-hydroxyoctahydro-2H-chromen-2-yl)pyridin-3-yl)-2-(2,6-difluorophenyl)pyrimidine-4-carboxamide]	13	3.37	70	24
O=C(Nc1cnccc1[C@H]1C[C@@H](O)[C@H](O)C2(CC2)O1)c1ccc(F)c(-c2c(F)cccc2F)n1 [Example 253, 6-(2,6-difluorophenyl)-N-(4-((5R,7R,8S)-7,8-dihydroxy-4-oxaspiro[2.5]octan-5-yl)pyridin-3-yl)-5-fluoropicolinamide]	273	0.99	79.5	12.6
C[C@]1(O)[C@H](N)C[C@H](c2ccncc2NC(=O)c2nc(-c3c(F)cccc3F)ncc2N)O[C@@H]1C1CC1 [Example 262, 5-amino-N-(4-((2R,4R,5S,6R)-4-amino-6-cyclopropyl-5-hydroxy-5-methyltetrahydro-2H-pyran-2-yl)pyridin-3-yl)-2-(2,6-difluorophenyl)pyrimidine-4-carboxamide]	2020	2.15	18.2	18.1
N[C@@H]1C[C@H](c2ccncc2NC(=O)c2ccc(F)c(-c3c(F)cccc3F)n2)O[C@H](C2CC2)[C@H]1O [Example 235, N-(4-((2R,4R,5S,6R)-4-amino-6-cyclopropyl-5-hydroxytetrahydro-2H-pyran-2-yl)pyridin-3-yl)-6-(2,6-difluorophenyl)-5-fluoropicolinamide]	7420	0.35	9.9	7.6
C[C@]1(O)[C@H](O)C[C@H](c2ccncc2NC(=O)c2nc(-c3c(F)cccc3F)ncc2N)O[C@@H]1C1CC1 [Example 246, 5-amino-N-(4-((2R,4R,5S,6R)-6-cyclopropyl-4,5-dihydroxy-5-methyltetrahydro-2H-pyran-2-yl)pyridin-3-yl)-2-(2,6-difluorophenyl)pyrimidine-4-carboxamide]	983	71.2	818	970
CC(C)(C)[C@H]1O[C@@H](c2ccncc2NC(=O)c2ccc(F)c(-c3c(F)cccc3F)n2)C[C@@H](N)[C@@H]1O [Example 255, N-(4-((2R,4R,5S,6R)-4-amino-6-(tert-butyl)-5-hydroxytetrahydro-2H-pyran-2-yl)pyridin-3-yl)-6-(2,6-difluorophenyl)-5-fluoropicolinamide]	2190	0.03	1.7	0.4
CC(C)[C@H]1O[C@@H](c2ccncc2NC(=O)c2nc(-c3c(F)cccc3F)ncc2N)C[C@@H](N)[C@@H]1O [Example 272, 5-amino-N-(4-((2R,4R,5S,6R)-4-amino-5-hydroxy-6-isopropyltetrahydro-2H-pyran-2-yl)pyridin-3-yl)-2-(2,6-difluorophenyl)pyrimidine-4-carboxamide]	1220	0.66	10.9	9
CC[C@]1(O)[C@H](N)C[C@H](c2ccncc2NC(=O)c2ccc(F)c(-c3c(F)cc(C)cc3F)n2)O[C@@H]1C [Example 259, N-(4-((2R,4R,5S,6R)-4-amino-5-ethyl-5-hydroxy-6-methyltetrahydro-2H-pyran-2-yl)pyridin-3-yl)-6-(2,6-difluoro-4-methylphenyl)-5-fluoropicolinamide]	218	0.03	4.8	0.4
